In patent publication US5292737A, “N,N'-bis(sulfonamido)-2-amino-4-iminonaphthalen-1-ones and N,N'-bis(amido)-2-amino-4-iminonaphthalen-1-ones” (Sphinx Pharmaceuticals Corporation, priority 1992, dated 1994):

Key:
Format in all cases: biochemical
PKC isoenzyme γ = biological target: T1, PKC isoenzyme γ (Homo sapiens, UniProt P05129); assay: Protein kinase C inhibition assay, PKC isoenzyme γ; conditions: read-out: IC50 PKC γ
T1 construct: made in house; host or cells: baculovirus-insect cell expression system
Procedure, shortened: (§1)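 Inhibition is measured as the compound concentration halving phosphate transfer to histone H1 or myelin basic protein by baculovirus-expressed enzyme. Assays use near-physiologic conditions with sub-saturating phosphatidylserine/DAG vesicles, compound at four concentrations up to 150 μM, and a 10 min reaction terminated by trichloroacetic acid before filter counting.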

PKC isoenzyme ζ = biological target: T2, PKC isoenzyme ζ (Homo sapiens, UniProt Q05513); assay: Protein kinase C inhibition assay, PKC isoenzyme ζ; conditions: read-out: IC50 PKC .zeta.
T2 construct: made in house; host or cells: baculovirus-insect cell expression system
T2 sequence (Q05513 1-592): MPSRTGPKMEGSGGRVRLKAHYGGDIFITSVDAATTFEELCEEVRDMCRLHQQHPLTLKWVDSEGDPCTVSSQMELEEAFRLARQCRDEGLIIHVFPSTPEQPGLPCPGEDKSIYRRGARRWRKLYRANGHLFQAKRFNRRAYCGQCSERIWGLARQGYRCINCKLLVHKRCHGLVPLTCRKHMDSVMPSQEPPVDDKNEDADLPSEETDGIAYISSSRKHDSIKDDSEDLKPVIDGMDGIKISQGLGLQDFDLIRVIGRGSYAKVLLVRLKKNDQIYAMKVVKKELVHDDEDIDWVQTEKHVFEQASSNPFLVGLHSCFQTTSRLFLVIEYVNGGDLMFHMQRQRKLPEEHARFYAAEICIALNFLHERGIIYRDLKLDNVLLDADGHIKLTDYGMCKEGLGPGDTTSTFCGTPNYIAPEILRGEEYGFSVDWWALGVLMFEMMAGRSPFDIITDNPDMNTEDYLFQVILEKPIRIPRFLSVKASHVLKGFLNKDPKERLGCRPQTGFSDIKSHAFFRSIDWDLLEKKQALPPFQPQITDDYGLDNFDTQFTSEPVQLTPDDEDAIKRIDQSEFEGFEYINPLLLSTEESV
Procedure, shortened: as §1

PKC isoenzyme ε = biological target: T3, PKC isoenzyme ε (Homo sapiens, UniProt Q02156); assay: Protein kinase C inhibition assay, PKC isoenzyme ε; conditions: read-out: IC50 PKC ε
T3 construct: made in house; host or cells: baculovirus-insect cell expression system
T3 sequence (Q02156 1-737): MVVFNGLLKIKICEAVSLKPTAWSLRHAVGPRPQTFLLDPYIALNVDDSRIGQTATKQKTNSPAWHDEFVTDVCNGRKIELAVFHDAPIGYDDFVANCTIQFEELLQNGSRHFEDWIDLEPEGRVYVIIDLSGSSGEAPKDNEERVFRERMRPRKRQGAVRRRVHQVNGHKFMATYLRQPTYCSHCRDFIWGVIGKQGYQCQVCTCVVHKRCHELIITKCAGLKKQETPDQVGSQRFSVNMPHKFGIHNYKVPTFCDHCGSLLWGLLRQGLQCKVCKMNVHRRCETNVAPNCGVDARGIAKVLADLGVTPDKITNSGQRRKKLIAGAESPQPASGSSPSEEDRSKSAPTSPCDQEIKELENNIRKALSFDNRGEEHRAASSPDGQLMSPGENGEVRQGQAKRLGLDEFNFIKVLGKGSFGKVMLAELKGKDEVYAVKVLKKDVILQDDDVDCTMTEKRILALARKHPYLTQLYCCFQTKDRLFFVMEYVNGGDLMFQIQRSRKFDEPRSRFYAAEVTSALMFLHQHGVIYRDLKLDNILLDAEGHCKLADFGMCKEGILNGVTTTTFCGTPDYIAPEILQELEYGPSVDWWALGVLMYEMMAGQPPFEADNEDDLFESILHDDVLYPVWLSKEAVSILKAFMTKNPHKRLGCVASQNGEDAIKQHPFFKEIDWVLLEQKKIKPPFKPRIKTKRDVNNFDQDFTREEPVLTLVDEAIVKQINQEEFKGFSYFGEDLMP
Procedure, shortened: as §1

[1] = biological target: cAMP dependent protein kinase (PKA); assay: cAMP Dependent Protein Kinase (PKA) Assay; conditions: for IC50: catalytic subunit of PKA; for effect on PKA activity: result in words
Procedure, shortened: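 PKA catalytic subunit preincubated with test compound added from DMSO at final 30 and 150 μM; reaction started with ^32P-ATP, run 10 min, stopped with 25% TCA plus BSA. Phosphorylated protein collected by filtration and counted by beta scintillation.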

Row | SMILES | IC50 (PKC isoenzyme γ) | IC50 (PKC isoenzyme ζ) | IC50 (PKC isoenzyme ε) | IC50 [1] | effect on PKA activity [1]
1 | O=C1C(Nc2ccc(S(=O)(=O)Nc3ccccn3)cc2)=CC(=Nc2ccc(S(=O)(=O)Nc3ccccn3)cc2)c2ccccc21 [Compound 3i] | 15 µM | > 150 µM | > 150 µM | > 150 µM | did not effect on PKA activity
2 | COc1ccc(NS(=O)(=O)c2ccc(N=C3C=C(Nc4ccc(S(=O)(=O)Nc5ccc(OC)nn5)cc4)C(=O)c4ccccc43)cc2)nn1 [Compound 3j] | 15 µM | > 150 µM | > 150 µM | > 150 µM | did not effect on PKA activity
3 | O=C1C(Nc2ccc(S(=O)(=O)Nc3ccc(Cl)nn3)cc2)=CC(=Nc2ccc(S(=O)(=O)Nc3ccc(Cl)nn3)cc2)c2ccccc21 [Compound 3l] | 7 µM | 28 µM | > 150 µM | 98 µM | 
4 | O=C1C(Nc2ccc(S(=O)(=O)Nc3cnc4ccccc4n3)cc2)=CC(=Nc2ccc(S(=O)(=O)Nc3cnc4ccccc4n3)cc2)c2ccccc21 [Compound 3m] | 14 µM | 28 µM | > 150 µM | 82 µM | 
5 | O=C1C(Nc2ccc(S(=O)(=O)NCc3ccccn3)cc2)=CC(=Nc2ccc(S(=O)(=O)NCc3ccccn3)cc2)c2ccccc21 [Compound 3n] | 24 µM | > 150 µM | > 150 µM | > 150 µM | did not effect on PKA activity

Now from value to compound:

Row | IC50 (PKC isoenzyme γ) | IC50 (PKC isoenzyme ζ) | IC50 (PKC isoenzyme ε) | IC50 [1] | effect on PKA activity [1] | SMILES
6 | 16 µM | > 150 µM | 35 µM |  | did not effect on PKA activity | Cc1cc(C)nc(NS(=O)(=O)c2cc(N=C3C=C(Nc4ccc(C)c(S(=O)(=O)Nc5cc(C)cc(C)n5)c4)C(=O)c4ccccc43)ccc2C)c1 [Compound 6ag]
7 | 7 µM | 132 µM | 15 µM | 48 µM |  | Cc1cc(C)nc(NS(=O)(=O)c2ccc(N=C3C=C(Nc4ccc(S(=O)(=O)Nc5nc(C)cc(C)n5)cc4)C(=O)c4ccccc43)cc2)n1 [Compound 6c]
8 | 9 µM | 9 µM | > 150 µM | 89 µM |  | O=C1C(Nc2ccc(S(=O)(=O)Nc3ccc(Cl)nn3)cc2)=CC(=Nc2ccc(S(=O)(=O)Nc3ccc(Cl)nn3)cc2)c2ccccc21 [Compound 6l]
9 | 10 µM | 9 µM | 141 µM | 145 µM |  | O=C1C(Nc2ccc(S(=O)(=O)Nc3cnc4ccccc4n3)cc2)=CC(=Nc2ccc(S(=O)(=O)Nc3cnc4ccccc4n3)cc2)c2ccccc21 [Compound 6m]
